Literature values in US8940742B2, “Heterocyclic compounds and uses thereof” (Infinity Pharmaceuticals, Inc., priority 2012, dated 2015).

How the values were obtained:
NZB/W F1 mice = settings: NZB/W model, profilactic and therapeutic; cited from earlier work
lupus symptoms = settings: B6.Sle1z.Sle3z model; cited from earlier work
[1] = PBS pH 7.4, 37° C., 24 hours, 5 μM; cited from earlier work
[2] = test system: p190 transduced leukemic cells; settings: about 70 mg/kg twice daily; cited from earlier work

In the case of `CC(C)C[C@H](NC(=O)[C@H](Cc1ccccc1)NC(=O)c1cnccn1)B(O)O` [Bortezimib], the blocking disease (NZB/W F1 mice) is given as “effective at blocking disease”.
For `CO[C@H]1C[C@@H]2CC[C@@H](C)[C@@](O)(O2)C(=O)C(=O)N2CCCC[C@H]2C(=O)O[C@H]([C@H](C)C[C@@H]2CC[C@@H](OCCO)[C@H](OC)C2)CC(=O)[C@H](C)/C=C(\C)[C@@H](O)[C@@H](OC)C(=O)[C@H](C)C[C@H](C)/C=C/C=C/C=C/1C` [RAD001, everolimus], the lupus symptoms (lupus symptoms) is listed as “ameliorate lupus symptoms”.
For `O=C(O)CCCc1ccc(N(CCCl)CCCl)cc1` [chlorambucil], the chemical stability [1] is listed as “largely hydrolyzed over the course of 24 hours”.
In the case of `Cc1ccc(NC(=O)c2ccc(CN3CCN(C)CC3)cc2)cc1Nc1nccc(-c2cccnc2)n1` [imatinib], the leukemogenesis [2] is listed as “delay but not cure leukemogenesis”.
